{"source": "patent US12404268B2", "about": "“2-heteroaryl aminoquinazolinone derivative” (Sumitomo Pharma Co., Ltd., priority 2020, dated 2025)", "key": {"[1]": {"tested_on": "neurons induced to differentiate from SCN1A gene deficient human iPS cells", "test": "Test for measuring hyperexcitation suppression activity (spontaneous calcium oscillation frequency)", "assay_type": "cell-based", "conditions": "Homo sapiens, Neuron; @1 μM; read-out: inhibition rate", "in_short": "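SCN1A-deficient iPS-derived neurons used from day 60 of differentiation, loaded 30 min with Calcium 6 probe. Compounds at final 0.1–100 μM; spontaneous calcium oscillation frequency recorded on FDSS7000EX, with the last 2 of 8 min post-addition expressed relative to the 2 min baseline.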"}, "[2]": {"tested_on": "SCN1A loss-of-function genetic mutation mice (epileptic spike)", "test": "Evaluation of epileptic spike using SCN1A-mutated animal", "assay_type": "in vivo, mouse", "conditions": "F1 SCN1A-mutated mice; spike frequency over 3 hours before and after administration", "method": "Evaluation of Epileptic Spike Using SCN1A-Mutated Animal\nThis test evaluates the inhibitory effect of a medicament on epileptic spike expressed with an SCN1A loss-of-function genetic mutation.\nFebrile seizure was induced in the SCN1A-mutated mice (6 to 10 week old) described above from increasing the body temperature by placing and continuously incubating the mice in a plastic chamber whose internal temperature was increased by incubation using a warm bath of about 43° C. After two weeks from inducing febrile seizure, a head mount (cat #8201-SS, Pinnacle Technology) was mounted on the head of the mice. Two weeks after mounting the head mount, the F1 SCN1A loss-of-function genetic mutation mice (25 to 32 g) were connected to a seizure EEG recording system (Pinnacle Technology), and the test compound was administered. The epileptic spike frequency over 3 hours before and after administration of the compound was measured, and the dose at which epileptic spike frequency is suppressed to 50% after the administration (ED50) was calculated."}, "[3]": {"tested_on": "male Slc:ddY mice (pentetrazol-induced clonic seizure)", "test": "Model subcutaneously injected with pentetrazol (minimum seizure model, scPTZ)", "assay_type": "in vivo, mouse", "conditions": "85 mg/kg pentetrazol s.c. 1 hour after oral dosing, observed 30 minutes", "method": "Evaluation of Model Subcutaneously Injected with Pentetrazol (Minimum Seizure Model, scPTZ)\nThis test evaluates the antiseizure effect of a medicament. The animal model used in this test is a phenotype of generalized absence seizure or myoclonic seizure. The test compound was orally administered to male Slc:ddY mice (group of five, body weight: 20 to 30 g), and 85 mg of pentetrazol/kg was subcutaneously administered 1 hour later. The presence/absence of expression of clonic seizure during 30 minutes was then observed. The dose at which […] (ED50) was calculated. 0.5% methylcellulose solution was administered for the control."}, "[4]": {"tested_on": "male Slc:ddY mice (electroshock-induced tonic extensor seizure)", "test": "Maximal electroshock seizure (MES) model", "assay_type": "in vivo, mouse", "conditions": "corneal stimulation 60 Hz, 50 mA, 0.2 seconds 1 hour after oral dosing", "method": "Evaluation of Maximal Electroshock Seizure (MES) Model\nThis test evaluates the antiseizure effect of a medicament in the same manner as Test Example 3. The animal model used in this test is a phenotype of generalized tonic-clonic seizure and secondary generalized partial seizure. The test compound was orally administered to male Slc:ddY mice (group of five, body weight: 20 to 30 g), and electrical stimulation (60 Hz, 50 mA, 0.2 seconds) was applied through the cornea 1 hour later. Suppression of induced expression of tonic extensor seizure of the rear limb was observed. The dose at which […] (ED50) was calculated. 0.5% methylcellulose solution was administered for the control."}, "male Slc:ddy mice": {"tested_on": "male Slc:ddy mice", "test": "Rotarod evaluation (motor coordination)", "assay_type": "in vivo, mouse", "conditions": "rotarod 15 rpm, 50 minutes after oral dosing, 180 seconds", "method": "The test evaluates the effect of suppressing the ability of motor coordination of a medicament. Male Slc:ddy mice (body weight: 20 to 30 g) were trained to walk for 5 minutes with a rotarod apparatus (apparatus for rotating a cylindrical bar with a 4 cm diameter, 12 rpm) on the day of the test. A test compound was orally administered to a group of 5 mice. […] Animals that fell off within 180 seconds due to incoordination were counted. […] 0.5% methylcellulose solution was administered for the control."}}, "data": [{"smiles": "O=c1c2cc(F)ccc2nc(Nc2cncc(F)c2)n1-c1ccccc1", "note": "[Example 40, 6-fluoro-2-((5-fluoropyridin-3-yl)amino)-3-phenylquinazolin-4(3H)-one]", "values": [{"measurement": "inhibition at 1 µM", "setting": "[1]", "result": 100, "unit": "%"}, {"measurement": "ED50 (dose at which epileptic spike frequency is suppressed to 50%)", "setting": "[2]", "result": "0.12 mg/kg, p.o."}, {"measurement": "ED50 (clonic seizure)", "setting": "[3]", "result": "0.27 mg/kg, p.o."}, {"measurement": "ED50 (tonic extensor seizure)", "setting": "[4]", "result": "0.56 mg/kg, p.o."}, {"measurement": "TD50 (dosage at which 50% of animals fall off)", "setting": "male Slc:ddy mice", "result": "1.8 mg/kg, p.o."}]}]}
